The source of these data is PubChem BioAssay AID651892 (Broad Institute, 2012).

The source made the active and inactive calls.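 Rule for the calls: active = IC50 below three times the IC50 of the reference antileishmanial control drug; inactive = the rest.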

For this test, the system named is L. donovani axenic amastigotes, Alamar Blue fluorescence, 72 h. The experiment in a line: L. donovani amastigote growth inhibition, dose response, axenic amastigotes, plate reader, dry powder (AID 651892).

The IC50 is the concentration that gives 50% inhibition. As for `C[C@@H]1CN([C@@H](C)CO)C(=O)c2cccc(NC(=O)c3ccncc3)c2O[C@H]1CN(C)Cc1ccc(Oc2ccccc2)cc1`, the IC50 is 40.5 µM (inactive).
